Reference: ChEMBL document CHEMBL6134821, “Design, synthesis, and biological evaluation of novel BTK-targeting proteolysis targeting chimeras (PROTACs) with enhanced pharmacokinetic properties” (Eur J Med Chem, 2025)
Active and inactive are the calls of the source. The rule behind the calls is not given here.

Tests used:
[1] = biological target: T1, Protein cereblon/Tyrosine-protein kinase BTK (Homo sapiens, UniProt Q06187+Q96SW2); test: PROTAC activity at CRBN/BTK in human JeKo-1 cells assessed as BTK degradation at 100 nM by Western blot analysis; type: cell-based; conditions: time 1-24 hrs
Target sequence in this assay (Q06187 2-659 limits assumed): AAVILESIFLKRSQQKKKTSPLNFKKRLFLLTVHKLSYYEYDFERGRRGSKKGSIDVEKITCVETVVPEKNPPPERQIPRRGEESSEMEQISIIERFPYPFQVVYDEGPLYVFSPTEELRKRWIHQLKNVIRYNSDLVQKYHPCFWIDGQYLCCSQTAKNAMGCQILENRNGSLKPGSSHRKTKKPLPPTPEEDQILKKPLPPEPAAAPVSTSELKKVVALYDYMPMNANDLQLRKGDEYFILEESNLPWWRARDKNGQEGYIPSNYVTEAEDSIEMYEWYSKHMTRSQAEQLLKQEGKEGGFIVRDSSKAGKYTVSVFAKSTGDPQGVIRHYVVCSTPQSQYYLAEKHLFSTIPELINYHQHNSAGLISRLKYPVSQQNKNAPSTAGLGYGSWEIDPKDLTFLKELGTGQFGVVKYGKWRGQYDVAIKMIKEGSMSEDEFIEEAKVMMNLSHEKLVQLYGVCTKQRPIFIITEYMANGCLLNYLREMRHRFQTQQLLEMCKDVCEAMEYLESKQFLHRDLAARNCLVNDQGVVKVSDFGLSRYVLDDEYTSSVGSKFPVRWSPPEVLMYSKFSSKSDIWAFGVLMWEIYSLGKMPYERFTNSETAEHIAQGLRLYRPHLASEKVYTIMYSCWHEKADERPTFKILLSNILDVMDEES
Target sequence in this assay (Q96SW2 whole entry partner): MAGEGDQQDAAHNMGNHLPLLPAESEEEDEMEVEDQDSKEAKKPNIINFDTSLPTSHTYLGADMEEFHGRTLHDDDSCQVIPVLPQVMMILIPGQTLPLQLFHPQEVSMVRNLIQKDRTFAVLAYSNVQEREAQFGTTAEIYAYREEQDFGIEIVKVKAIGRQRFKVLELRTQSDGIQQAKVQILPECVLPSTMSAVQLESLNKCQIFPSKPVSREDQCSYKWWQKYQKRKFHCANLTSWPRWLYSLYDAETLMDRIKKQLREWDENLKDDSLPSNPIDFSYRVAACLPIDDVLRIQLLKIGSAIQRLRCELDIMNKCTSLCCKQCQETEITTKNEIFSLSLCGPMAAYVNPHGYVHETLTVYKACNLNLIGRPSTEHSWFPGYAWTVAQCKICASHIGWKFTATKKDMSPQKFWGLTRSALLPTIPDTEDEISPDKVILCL

[2] = Drug concentration in plasma of mouse at 30 mg/kg, ip measured after 24 hrs by LC-MS/MS analysis; type: ADME, organism-based
JeKo-1 [3] = test: Effect on GSPT1 level in human JeKo-1 cells at 0.1 to 1000 nM incubated for 8 hrs by Western blot analysis; type: functional, cell-based; conditions: dose 0.1-1000 nM
[4] = Cytotoxicity against human TMD8 cells harboring wild-type BTK assessed as inhibition of cell viability incubated for 5 days by CCK8 assay; type: functional, cell-based; conditions: TMD8, 120 h
[5] = AUC (0 to t) in mouse at 2 mg/kg, iv measured for 0.083 to 24 hrs by LC-MS/MS analysis; type: ADME, organism-based; conditions: in vivo, time 0.083-24 hrs
[6] = biological target: T1, Protein cereblon/Tyrosine-protein kinase BTK; test: PROTAC activity at CRBN/BTK in human JeKo-1 cells assessed as BTK degradation at 30 nM incubated for 24 hrs by Western blot analysis relative to control; type: cell-based
Target sequence in this assay (Q06187 2-659 limits assumed): as the sequence (Q06187 2-659 limits assumed) above
Target sequence in this assay (Q96SW2 whole entry partner): as the sequence (Q96SW2 whole entry partner) above

JeKo-1 [7] = test: Effect on IKZF3 level in human JeKo-1 cells at 0.1 to 1000 nM incubated for 8 hrs by Western blot analysis; type: functional, cell-based; conditions: dose 0.1-1000 nM
JeKo-1 [8] = test: Effect on IKZF1 level in human JeKo-1 cells at 0.1 to 1000 nM incubated for 8 hrs by Western blot analysis; type: functional, cell-based; conditions: dose 0.1-1000 nM
[9] = Microsomal stability in human liver microsomes assessed as intrinsic clearance in microsomes measured up to 60 mins in presence of NADPH by LC-MS/MS analysis; type: ADME, Microsome; conditions: read-out: CLH
[10] = biological target: Protein cereblon/Tyrosine-protein kinase BTK (Homo sapiens, UniProt Q06187+Q96SW2, C481S); test: (§1) PROTAC activity at CRBN/BTK C481S mutant (unknown origin) expressed in human TMD8 cells assessed as BTK degradation measured after 24 hrs by Western blot analysis; type: cell-based
Sequence of Protein cereblon/Tyrosine-protein kinase BTK (Homo sapiens, UniProt Q06187+Q96SW2, C481S) (Q06187 whole entry, looked up, stated change not applied): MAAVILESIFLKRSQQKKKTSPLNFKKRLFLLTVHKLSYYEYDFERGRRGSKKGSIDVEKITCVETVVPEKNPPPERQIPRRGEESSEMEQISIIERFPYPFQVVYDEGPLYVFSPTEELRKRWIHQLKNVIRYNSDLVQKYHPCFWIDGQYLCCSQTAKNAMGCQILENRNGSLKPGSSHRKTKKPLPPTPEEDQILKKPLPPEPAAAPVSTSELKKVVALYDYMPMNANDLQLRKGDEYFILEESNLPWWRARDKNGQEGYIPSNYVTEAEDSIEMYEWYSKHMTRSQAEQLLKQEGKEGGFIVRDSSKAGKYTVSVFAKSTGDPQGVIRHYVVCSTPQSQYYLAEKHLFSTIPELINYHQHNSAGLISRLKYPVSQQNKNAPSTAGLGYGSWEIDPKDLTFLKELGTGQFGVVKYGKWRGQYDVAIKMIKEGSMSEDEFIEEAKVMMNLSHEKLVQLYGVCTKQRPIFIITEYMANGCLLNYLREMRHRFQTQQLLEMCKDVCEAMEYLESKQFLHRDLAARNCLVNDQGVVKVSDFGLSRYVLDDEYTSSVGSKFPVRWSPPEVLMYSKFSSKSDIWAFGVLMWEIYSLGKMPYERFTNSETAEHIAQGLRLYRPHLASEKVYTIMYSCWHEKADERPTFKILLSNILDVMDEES
Sequence of Protein cereblon/Tyrosine-protein kinase BTK (Homo sapiens, UniProt Q06187+Q96SW2, C481S) (Q96SW2 whole entry, looked up, stated change not applied): as the sequence (Q96SW2 whole entry partner) above

[11] = test system: Protein cereblon/Tyrosine-protein kinase BTK (Homo sapiens), Q06187+Q96SW2 [C481S]; test: as §1; type: cell-based; conditions: dose 0.1-1000 nM
[12] = biological target: T1, Protein cereblon/Tyrosine-protein kinase BTK; test: PROTAC activity at CRBN/BTK in human JeKo-1 cells assessed as BTK degradation at 10 nM incubated for 24 hrs by Western blot analysis relative to control; type: cell-based
Target sequence in this assay (Q06187 2-659 limits assumed): as the sequence (Q06187 2-659 limits assumed) above
Target sequence in this assay (Q96SW2 whole entry partner): as the sequence (Q96SW2 whole entry partner) above

[13] = biological target: T1, Protein cereblon/Tyrosine-protein kinase BTK; test: PROTAC activity at CRBN/BTK in human JeKo-1 cells assessed as BTK degradation at 100 nM incubated for 24 hrs by Western blot analysis relative to control; type: cell-based
Target sequence in this assay (Q06187 2-659 limits assumed): as the sequence (Q06187 2-659 limits assumed) above
Target sequence in this assay (Q96SW2 whole entry partner): as the sequence (Q96SW2 whole entry partner) above

[14] = Cmax in mouse at 30 mg/kg, ip measured after 0.083 hrs by LC-MS/MS analysis; type: ADME, organism-based; conditions: in vivo
[15] = biological target: T1, Protein cereblon/Tyrosine-protein kinase BTK; test: PROTAC activity at CRBN/BTK in human TMD8 cells assessed as BTK degradation measured after 24 hrs by Western blot analysis; type: cell-based; conditions: for Activity: dose 0.1-1000 nM
[16] = Microsomal stability in human liver microsomes assessed as intrinsic clearance in liver measured up to 60 mins in presence of NADPH by LC-MS/MS analysis; type: ADME, Microsome; conditions: read-out: CLH
[17] = Cytotoxicity against human TMD8 cells harboring BTK C481S mutant assessed as inhibition of cell viability incubated for 5 days by CCK8 assay; type: functional, cell-based; conditions: TMD8, 120 h
JeKo-1 [18] = test: Downregulation of CSK level in human JeKo-1 cells at 100 nM incubated for 4 hrs by Label-free MS proteomics analysis; type: functional, cell-based
[19] = Toxicity in mouse at 30 mg/kg, ip measured for 0.083 to 24 hrs by LC-MS/MS analysis; type: organism-based; conditions: in vivo, time 0.083-24 hrs
[20] = biological target: T1, Protein cereblon/Tyrosine-protein kinase BTK; test: PROTAC activity at CRBN/BTK in human JeKo-1 cells assessed as BTK degradation incubated for 8 hrs by Western blot analysis; type: cell-based; conditions: dose 0.1-1000 nM
Target sequence in this assay (Q06187 2-659 limits assumed): as the sequence (Q06187 2-659 limits assumed) above
Target sequence in this assay (Q96SW2 whole entry partner): as the sequence (Q96SW2 whole entry partner) above

[21] = biological target: T1, Protein cereblon/Tyrosine-protein kinase BTK; test: PROTAC activity at CRBN/BTK in human JeKo-1 cells assessed as BTK degradation at 100 nM incubated for 4 hrs by Label-free MS proteomics analysis; type: cell-based
Target sequence in this assay (Q06187 2-659 limits assumed): as the sequence (Q06187 2-659 limits assumed) above
Target sequence in this assay (Q96SW2 whole entry partner): as the sequence (Q96SW2 whole entry partner) above

[22] = biological target: T1, Protein cereblon/Tyrosine-protein kinase BTK; test: PROTAC activity at CRBN/BTK in human JeKo-1 cells assessed as hook effect up to 1 uM incubated for 24 hrs by Western blot analysis; type: cell-based
[23] = biological target: T1, Protein cereblon/Tyrosine-protein kinase BTK; test: PROTAC activity at CRBN/BTK in human JeKo-1 cells assessed as BTK degradation at 100 nM measured after 4 hrs by Western blot analysis relative to control; type: cell-based
[24] = Microsomal stability in human liver microsomes assessed as compound remaining measured up to 60 mins by LC-MS/MS analysis; type: ADME, Microsome; conditions: read-out: Stability
[25] = Microsomal stability in human liver microsomes assessed as half life measured up to 60 mins in presence of NADPH by LC-MS/MS analysis; type: ADME, Microsome
[26] = biological target: T1, Protein cereblon/Tyrosine-protein kinase BTK; test: PROTAC activity at CRBN/BTK in human JeKo-1 cells assessed as BTK degradation at 10 nM incubated for 24 hrs in presence of bortezomib by Western blot analysis; type: cell-based
[27] = Toxicity in mouse at 2 mg/kg, iv measured for 0.083 to 24 hrs by LC-MS/MS analysis; type: organism-based; conditions: in vivo, time 0.083-24 hrs
[28] = biological target: T1, Protein cereblon/Tyrosine-protein kinase BTK; test: PROTAC activity at CRBN/BTK in human JeKo-1 cells assessed as BTK degradation incubated for 24 hrs by Western blot analysis; type: cell-based; conditions: for Activity: dose 0.01-1000 nM
[29] = Microsomal stability in human liver microsomes assessed as compound remaining measured up to 60 mins in presence of NADPH by LC-MS/MS analysis; type: ADME, Microsome; conditions: read-out: Stability
[30] = biological target: T1, Protein cereblon/Tyrosine-protein kinase BTK; test: PROTAC activity at CRBN/BTK in human JeKo-1 cells assessed as BTK degradation at 10 nM incubated for 24 hrs in presence of MLN-4924 by Western blot analysis; type: cell-based
JeKo-1 [31] = test: Downregulation of BLK level in human JeKo-1 cells at 100 nM incubated for 4 hrs by Label-free MS proteomics analysis; type: functional, cell-based

Row | Compound | Activity [1] | Activity (JeKo-1 [3]) | IC50 [4] | Activity [6] | Activity (JeKo-1 [7]) | Activity (JeKo-1 [8]) | microsomal CLint [9] | DC50 [10] | Activity [11] | Activity [12] | Activity [13] | DC50 [15] | Activity [15] | CLint scaled [16] | IC50 [17] | Activity [20] | Activity [22] | Activity [23] | remaining at 1 h [24] | half-life [25] | other results
1 | O=C1CCC(c2ccc(N3CCC(CCN4CCC(CC(=O)N[C@H]5CC[C@H](Nc6ncnc7[nH]cc(C(=O)c8ccc(Oc9ccccc9)cc8)c67)C5)CC4)CC3)nc2)C(=O)N1 (stereo partly drawn) | Time-dependent-effect; Compound Exhibited Significant Reduction At 1 Hr | inactive | 9.9 nM | 94% | inactive | inactive | < 9.6 µL/min/mg | 4.3 nM | Dose-dependent-effect | 89% | 91% | 2.8 nM | Dose-dependent-effect | < 8.6 mL/min/kg | 18.2 nM | Dose-dependent-effect | inactive | 100% | 79.3% | > 2.42 h | concentration at 24 h [2]: > 0.1 µM; AUC(0-t) [5]: 1730 ng·h/mL; Cmax [14]: 3.67 µM; Activity (JeKo-1 [18]): Active; Activity [19]: Non-toxic; Activity [21]: Active; Activity [26]: inactive; Activity [27]: Non-toxic; DC50 [28]: 2.9 nM; Activity [28]: Dose-dependent-effect; remaining at 1 h [29]: 106%; Activity [30]: inactive; Activity (JeKo-1 [31]): Active
2 | O=C1CCC(c2ccc(N3CCC(CCN4CCC(CC(=O)N[C@H]5CC[C@H](Nc6ncnc7[nH]cc(C(=O)c8ccc(Oc9ccccc9)cc8)c67)C5)CC4)CC3)cc2)C(=O)N1 (stereo partly drawn) | Time-dependent-effect; Compound Exhibited Significant Reduction At 1 Hr | inactive | 24.6 nM | 81% | inactive | inactive | < 9.6 µL/min/mg | 5.6 nM | Dose-dependent-effect | 78% | 85% | 3.4 nM | Dose-dependent-effect | < 8.6 mL/min/kg | 26.5 nM | Dose-dependent-effect | inactive | 100% | 99.8% | > 2.42 h | Activity [26]: inactive; DC50 [28]: 1.7 nM; Activity [28]: Dose-dependent-effect; remaining at 1 h [29]: 92.2%; Activity [30]: inactive
